We go through one molecule from patent publication US7087626B2, “Pyrrole derivatives as pharmaceutical agents” (Eli Lilly and Company, priority 2001, dated 2006).

The structures appear in SMILES notation. Some results are limits rather than exact numbers.

One assay has as its target T1, KDR (VEGFR2) (Homo sapiens, UniProt P35968).
T1 construct: The 6×-HIS tagged cytoplasmic kinase domain of KDR was expressed and purified from Sf9 insect cell lysates; 6xHis; made in house; host or cells: Sf9 insect cells
The experiment in a line: KDR (VEGFR2) in vitro kinase assay. Conditions: 1 ug enzyme, 1 uM ATP, 30° C., 20 min. It is filed as biochemical. The protocol:
KDR (VEGFR2) Purification and in vitro Kinase Assay
The 6×-HIS tagged cytoplasmic kinase domain of KDR was expressed and purified from Sf9 insect cell lysates as described above with the following modification:
1× kinase buffer for chromatography washes and elution was changed to 100 mM HEPES pH 7.5, 10 mM MnCl2 and 5 mM β-mercaptoethanol. The resulting material was approximately 40% pure and had tyrosine autophosphorylation activity.
Reactions: 1 ug enzyme in 1×KB, compound dilution series in 1×KB/16% DMSO (20 uM to 1 nM final concentration with 4% DMSO final concentration), reactions were started by adding ATP mix (1 uM ATP/1 uCi ^33P-[…]-ATP final concentrations) in 1×KB.
Reactions were incubated at 30° C. for 20 min. The reactions were stopped and quantitated using standard TCA/BSA precipitation onto Millipore FC glass fiber filter plates and by liquid scintillation counting on a MicroBeta JET.

A further assay has as its target T2, p38α/SAPK2α (Homo sapiens, UniProt Q16539).
T2 construct: purchased Upstate Biotechnology 14-251
The experiment in a line: p38α in vitro kinase assay. Conditions: 5 nM p38α, 62.5 uM EGFR substrate, 100 uM ATP, 30° C., 40 min. It is filed as biochemical. The protocol: p38α in vitro Kinase Assay
Active p38α/SAPK2α was purchased from Upstate Biotechnology (cat#14-251). A known p38α substrate from EGFR was used in the assay (Young, et al. (1997) JBC 272: 12116-12121).
Reactions were performed in 1× kinase buffer (25 mM Tris-HCl pH 7.5, 5 mM β-glycerophosphate, 2 mM DTT, 0.1 mM Na3VO4, 10 mM MgCl2, 1 uM Microcystin) with 5 nM p38α, 62.5 uM substrate, 40 uM to 0.2 nM compound dilution series in 1×KB/16% DMSO (final 4% DMSO concentration). Reactions were started by addition of 100 uM ATP (final concentration) with 1 uCi ^33P-γ-ATP in 1×KB and incubated at 30° C. for 40 min. Reactions were stopped with H3PO4 and quantitated on Millipore PH phosphocellulose filter plates by liquid scintillation counting on a MicroBeta JET.

T1 sequence (P35968 834-1162 limits assumed, species assumed): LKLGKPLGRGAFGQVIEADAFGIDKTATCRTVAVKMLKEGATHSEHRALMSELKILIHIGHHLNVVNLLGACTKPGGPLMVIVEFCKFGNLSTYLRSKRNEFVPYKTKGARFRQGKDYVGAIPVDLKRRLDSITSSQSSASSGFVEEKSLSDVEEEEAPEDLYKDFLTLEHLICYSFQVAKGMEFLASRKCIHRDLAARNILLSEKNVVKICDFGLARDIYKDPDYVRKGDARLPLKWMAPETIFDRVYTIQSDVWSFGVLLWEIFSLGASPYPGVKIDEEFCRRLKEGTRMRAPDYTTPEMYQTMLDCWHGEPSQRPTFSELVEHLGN
T2 sequence (Q16539 whole entry): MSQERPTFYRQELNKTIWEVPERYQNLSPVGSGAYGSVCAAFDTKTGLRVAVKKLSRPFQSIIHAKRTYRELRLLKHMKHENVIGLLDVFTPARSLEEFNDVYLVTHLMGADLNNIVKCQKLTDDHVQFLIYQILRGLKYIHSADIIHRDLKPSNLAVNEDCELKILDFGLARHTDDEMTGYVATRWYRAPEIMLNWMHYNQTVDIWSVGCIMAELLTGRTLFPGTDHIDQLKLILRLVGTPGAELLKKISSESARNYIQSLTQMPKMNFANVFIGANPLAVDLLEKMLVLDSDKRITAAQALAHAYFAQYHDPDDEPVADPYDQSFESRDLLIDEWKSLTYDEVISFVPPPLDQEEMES

As to `COC(=O)c1ccc2c(-c3c(-c4ccccn4)nn4c3CCC4)ccnc2c1` [4-[2-Pyridin-2-yl-5,6-dihydro-4H-pyrrolo[1,2-b]pyrazol-3-yl]-quinoline-7-carboxylic acid methyl ester], the IC50 at KDR (VEGFR2) and at p38α/SAPK2α was < 20 µM each time.

As usually defined, the IC50 is the midpoint of a concentration-inhibition curve. A high value points to lower potency.
